From patent publication US4931429A, “α-aminoacyl β-aminoacyl aminodiols as anti-hypertensive agents” (G. D. Searle & Co., priority 1987, dated 1990)
pIC50: −log10 of the molar value.

Key:
Hog renin = test: hog renin inhibition assay; format: biochemical; settings: synthetic tetradecapeptide substrate, pH 7.4, one hour at 37° C., angiotensin I by radioimmunoassay
Protocol: The hog renin inhibition assay was performed in a manner similar to the human renin assay, with the following modifications. Hog renin was purchased from Sigma Chemical Co. and the synthetic tetradecapeptide substrate was obtained from Peninsula Labs Inc. In a final volume of 0.25 mL 100 mM Tris-acetate buffer at pH 7.4, 0.125m units hog renin, 20 micromolar tetradecapetide, 6 mM disodium EDTA, 3.2 mM phenylmethyl sulfonyl fluoride, 3 mM 8-hydroxyquinoline, 1.2 mg/mL BSA and 0.024 mg/mL neomycin sulfate were incubated for one hour at 37° C. in the presence or absence of renin inhibitors. The amount of angiotensin I produced was determined as for the human renin inhibition assay.

Human renin = target: T1, Human renin (Homo sapiens, UniProt P00797); test: human renin inhibition test; format: biochemical; settings: human plasma substrate, pH 7.4, two hours at 37° C., angiotensin I by radioimmunoassay
T1 construct: purchased National Institute for Biological Standards, London
T1 sequence (P00797 67-406): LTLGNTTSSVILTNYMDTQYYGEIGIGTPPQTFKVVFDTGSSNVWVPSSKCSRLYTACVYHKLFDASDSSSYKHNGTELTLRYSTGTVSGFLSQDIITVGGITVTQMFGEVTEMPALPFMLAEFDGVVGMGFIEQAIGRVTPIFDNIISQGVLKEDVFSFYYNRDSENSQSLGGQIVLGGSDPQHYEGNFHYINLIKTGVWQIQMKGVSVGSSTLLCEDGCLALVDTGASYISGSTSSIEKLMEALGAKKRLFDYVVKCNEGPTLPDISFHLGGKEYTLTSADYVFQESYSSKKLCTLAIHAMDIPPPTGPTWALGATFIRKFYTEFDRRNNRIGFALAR
Protocol: The human renin inhibition test has been previously described in detail in papaioannou, et al. (1985) Clinical and Experimental Hypertension A7(9), 1243-1257. Human renin was obtained from the National Institute for Biological Standards, London. In a total volume of 0.25 mL 100 mM Tris-acetate buffer at pH 7.4, 25 x 10-6 Goldblatt units of renin, 0.05 mL of plasma from human volunteers taking oral contraceptives, 6.0 mM sodium EDTA, 2.4 mM phenylmethyl sulfonyl fluoride, 1.5 mM 8-hydroxyquinoline, 0.4 mg/mL BSA, and 0.024 mg/mL neomycin sulfate were incubated for two hours at 37° C. in the presence or absence of renin inhibitors. The produced angiotensin I was determined by radioimmunoassay (New England Nuclear kit). Compounds of Formula I to be assayed were solubilized in either ethyl alcohol or DMSO and diluted with 100 mM Tris-acetate buffer at pH 7.4 to the appropriate concentration. The final concentration of organic solvent in the reaction mixture was less than 1%. Control incubations at 37° C. were used to correct for effects of organic solvent on renin activity.

Structure (SMILES) | pIC50 (Hog renin) | pIC50 (Human renin)
CC(CNC(=O)[C@H](Cc1ccccc1)NC(=O)OC(C)(C)C)C(=O)N[C@@H](CC1CCCCC1)[C@@H](O)CO (stereo partly drawn) [Example 8, Boc-L-phenylalaninyl-D,L-α-methyl-β-alaninamide of (2S,3R)-2-amino-1-cylohexyl-3,4-dihydroxybutane] | 5.68 | 5.70
CC(C)C[C@H](O)[C@H](O)[C@H](CC1CCCCC1)NC(=O)C(C)CNC(=O)[C@H](Cc1ccccc1)NC(=O)OC(C)(C)C (stereo partly drawn) [Example 9, Boc-L-phenylalaninyl-D,L-α-methyl-β-alaninamide of (2S,3R,4S)-2-amino-1-cyclohexyl-3,4-dihydroxy-6-methylheptane] | 7.90 | 6.68
